Experimental findings from patent US20210275521A1, “OXABICYCLOHEPTANES FOR TREATMENT OF SECONDARY ACUTE MYELOID LEUKEMIA” (Lixte Biotechnology, Inc., priority 2017, published 2021) are described below.

One assay relates to SKM-1 xenografts. Briefly: In vivo tumorigenicity assay, SKM-1 xenograft. The following applies: 2 mg/kg i.p. every other day for 14d, vs control. Also noted: species or system NOD/SCID mice. On the procedure: All animal studies were performed according to the guidelines of Animal Care and Use Committee of the First Affiliated Hospital of Zhejiang University and met the NIH guidelines for the care and use of laboratory animals. And all animal studies were approved by IACUC committee of the First Affiliated Hospital of Zhejiang University. Nonobese diabetic/severe combined immunodeficiency (NOD/SCID) mice aged 6 weeks were purchased from the Shanghai Experimental Animal Center of the Chinese Academy of Sciences (Shanghai, China). SKM-1 cells (5×106 in 100 μl PBS) were injected subcutaneously into the right flank of each mouse. By 10-14d, when the tumor volumes had reached 90-110 mm3, the mice were randomly divided into four groups: DNR LB100, DNR only, LB100 only, and control. Mice were injected intraperitoneally (i.p.) with 2 mg/kg DNR and/or 2 mg/kg LB100, every other day for a total of 14d. Control mice were injected with an equal volume of PBS. Tumor size was monitored every 3d based on caliper measurements of the two perpendicular diameters; tumor volume was calculated using the formula V=(width′×length×it/6).

For a further assay, the system named is SKM-1. Nature of the assay: MTT cytotoxicity assay, SKM-1 (sAML cell line). The assay is classed as cell-based, human. To be noted: for SKM-1 cell viability: 24h incubation. The procedure: (§1) The following five human leukemia cell lines were obtained from the Shanghai Institute of Cell Biology (Shanghai, China): Kasumi-1, HL-60, THP-1, U937 and K562. The SICM-1 leukemia cell line was acquired from the Health Science Research Resources Bank (Osaka, Japan), established from a patient with MDS that had progressed to myelomonocytic leukemia.
(§2) Cells were seeded into 96-well microtiter plates (Nunc, Roskilde, Denmark) at densities of either 1×10^5 cells/ml (established cell lines) or 5×10^5 cells/ml (primary AML cells). […] After exposure, 20 μl of 3-(4, 5-dimethylthiazol-2-yl)-2, 5-diphenylterazolium bromide solution (MTT, Sigma-Aldrich) was added to each well. The plates were then incubated for 4 h at 37° C. The MTT-containing solution was then aspirated away, 200 μI DMSO added to each well, and absorbance at 570 nm was measured.
Background: Formazan colour is commonly taken as a measure of viable cells.

The subject of assay [1] is SKM-1 cells. Nature of the assay: Western blotting of SKM-1 cells. The class given is cell-based, human. The procedure:
Cells were washed twice in PBS and lysed in 10 mM Tris, 1 mM ethylenediaminetetra-acetic acid (EDTA), 10 mM KCl, 0.3% Triton, and 0.1 mM phenylmethanesulfonyl fluoride (PMSF). Equal amounts of protein (30-50 μg) were separated on 8-12% SDS-polyacrylamide gels, and transferred to polyvinylidene fluoride (PVDF) membranes. Membranes were blocked with 5% non-fat milk and incubated overnight with the appropriate primary antibody at manufacturer-specified dilutions. Primary monoclonal antibodies were against I3-ACTIN (Santa Cruz Biotechnology, CA, USA); CDCl25C, p-CDCl25C, CDCl2, p-CDCl2, PP2A-A, PP2A-B, PP2A-C (Epitomics, USA); AKT, p-AKT, PARP, RAS, p-MEK, p-ERK, Raf, p-CamKII, Bc.1-2 and p-Bd-2 (Cell Signaling Technology, MA, USA).
Next, the membranes were washed three times in TBS-T buffer (10 mm Tris-HCl, pH 8, 150 mm NaCl, 0.1% Tween 20), and incubated for 1 h with the corresponding horseradish peroxidase (HRP)-conjugated secondary antibody at 1:5,000 dilution. Bound secondary antibody was detected using an enhanced chemiluminescence (ECL) system (Pierce Biotechnology, IL, USA).
In general terms: Immunoblotting shows a protein as a band on a membrane.

Assay [2] deals with miR-181b-1. Briefly: Quantitation of miR-181b-1 by real-time quantitative RT-PCR. The assay is classed as cell-based, human. The following applies: SKM-1, normalized to U6 RNA, vs control. From the text:
Total miRNA was extracted from 1×10^6 SKM-1 cells using the RNAiso kit for small RNA (TaKaRa, Japan), and reverse-transcribed using the One Step PrimeScript miRNA cDNA Synthesis Kit (TaKaRa, Japan). The resulting cDNA was quantified using the iCycler Real-time PCR Detection System (BioRad, Calif., USA) and SYBR Green (Takara, Japan). The expression of miR-181b-1 was quantified relative to the expression of human U6 small nuclear RNA using the 2-°° c.′ method.

For assay [3], the system named is miR-181b-1. Briefly: MicroRNA microarray analysis. The following applies: SKM-1, exposure 12h. The class given is cell-based, human. The text has this: Total RNA was extracted from SKM-1 and LB100-treated-SKM-1 cells using the RNeasy mini kit (Qiagen, Calif., USA) according to the manufacturer's instructions. The miRNA microarray analysis was done by KangChen (Shanghai, China).

For assay [4], the system named is SKM-1 cells. Briefly: Leukemia colony-forming assay. The following applies: 7 days in methylcellulose medium. The class given is cell-based, human. On the procedure: LB100-treated SKM-1 cells were seeded in a methylcellulose medium and incubated for 7 d at 37° C. The number of leukemia colony-forming units (CFU-Ls) containing >50 cells were determined manually under a light microscope (Olympus).

Assay [5] relates to SKM-1 cells. Nature of the assay: Hoechst staining of nuclear morphology. The assay is classed as cell-based, human. To be noted: 24 h, varying doses. On the procedure:
SKM-1 cells were treated with LB100 for 24 h. Cells were then permeabilized with 0.5% Triton X-100 for 30 min, washed with PBS, stained with 10 μg/ml Hoechst for 30 min, and washed with PBS. Nuclear morphology was observed immediately after using a BX51 fluorescence microscope (Olympus, Tokyo, Japan).

The test system of another assay is HL-60. Nature of the assay: MTT cytotoxicity assay, HL-60. To be noted: Homo sapiens; HL-60, at 4 h after treatment. The class given is cell-based. On the procedure:
as §1, §2

The test system of assay [6] is SKM-1 cells. Nature of the assay: Cell cycle analysis by flow cytometry. The assay is classed as cell-based, human. The following applies: 12 h exposure at 5 μM. The procedure: Cells were collected after being fixed overnight in 75% ethanol at −20° C. Fixed cells were washed twice with PBS, then incubated for 30 min with RNase A and propidium iodide (10 μg/ml). Cell cycle analysis was performed using a BDL SRII Flow Cytometer and FACSDiva Software (BD Bioscience, Franklin Lakes, USA). Raw data was analyzed using ModFit LT 3.2 software (Verity Software House, Topsham, USA).

The next assay relates to THP-1. Briefly: MTT cytotoxicity assay, THP-1. The class given is cell-based. To be noted: Homo sapiens; THP-1, at 4 h after treatment. The procedure: as §1, §2
Another assay addresses T1, PP2A (Homo sapiens, UniProt P67775).
T1 construct: endogenous in cells; host or cells: SKM-1 cells (lysate, immunoprecipitated with Millipore kit)
Briefly: PP2A phosphatase activity assay in SKM-1 cells. The assay is classed as cell-based. The following applies: 10 μM LB100, SKM-1 cells. The procedure: 1×IV SKM-1 cells were seeded into 6-well microtiter plates and treated with different concentrations of LB100 (0, 1.25, 2.5, 5, 10 μNI). […] Cell lysate was sonicated for 10 seconds and then centrifuged at 20,000 g for 15 minutes. Supernatant was then assayed with the PP2A Immunoprecipitation Phosphatase Assay Kit (Millipore, Mass., USA).

The next assay has as its system K562. Nature of the assay: MTT cytotoxicity assay, K562. The assay is classed as cell-based. The following applies: Homo sapiens; K562, at 4 h after treatment. The procedure: as §1
(§3) Cells were seeded into 96-well microtiter plates (Nunc, Roskilde, Denmark) at densities of either 1×10^5 cells/ml (established cell lines) or 5×10^5 cells/ml (primary AML cells). Cultures were exposed to different drugs for 24 h. After exposure, 20 μl of 3-(4, 5-dimethylthiazol-2-yl)-2, 5-diphenylterazolium bromide solution (MTT, Sigma-Aldrich) was added to each well. The plates were then incubated for 4 h at 37° C. The MTT-containing solution was then aspirated away, 200 μI DMSO added to each well, and absorbance at 570 nm was measured.

In another assay the test system is U937. Briefly: MTT cytotoxicity assay, U937. The assay is classed as cell-based. To be noted: Homo sapiens, U-937; U937, at 4 h after treatment. On the procedure:
as §1, §2

In the next assay the test system is Bcl-2. Nature of the assay: Immunohistochemistry staining of SKM-1 xenograft for Bcl-2. Details: species or system NOD/SCID mice. To be noted: in-vivo. The procedure: Immunohistochemical staining was performed on the paraffin-embedded sections. Tissue sections were dewaxed and rehydrated before performing antigen retrieval. Anti-BCL-2 (Cell Signaling Technology, MA, USA) were applied at 1:100 dilution in PBS to incubate slides overnight at 4° C., and incubated with an HRP-conjugated secondary antibody for 1 hat room temperature. DAB was used for color development, and dark brown staining was considered positive. All slides were photographed with optical microscopy Olympus BX51.

Assay [7] concerns SKM-1 cells. Nature of the assay: Annexin V and propidium iodide flow-cytometry apoptosis assay. The assay is classed as cell-based, human. The following applies: for rate of apoptosis: LB100 10 μM 24 h. The procedure: Cells were seeded into 6-well plates, and treated for 24h at 37° C. with different concentrations of LB100 (0, 1.25, 2.5, 5,10 μM). After washing with PBS, aliquots of the cells were resuspended in binding buffer, and stained with 5 μl Annexin V and 5 μl propidium iodide (Biouniquer, Nanjing, China) according to the manufacturer's instructions. Fluorescence-activated cell sorting (FACS) was then performed immediately after staining.
Cells (5×10^5 cells/well) were pre-incubated for 3 h at 37° C. in the presence or absence of 20 KM of the pan-caspase inhibitor z-VAD-fmk (R&D Systems, MN, USA) in DMSO. Cells were then treated with LB100 for 24h, and processed in the Annexin V-binding assay as described above.

The next assay has as its system Kasumi-1. Briefly: MTT cytotoxicity assay, Kasumi-1. To be noted: Homo sapiens; Kasumi-1, at 4 h after treatment. The assay is classed as cell-based. The procedure: as §1, §3

One may read the IC50 as the concentration that gives 50% inhibition. Low readings indicate inhibition by little substance, high ones a need for much substance.

T1 sequence (P67775 whole entry): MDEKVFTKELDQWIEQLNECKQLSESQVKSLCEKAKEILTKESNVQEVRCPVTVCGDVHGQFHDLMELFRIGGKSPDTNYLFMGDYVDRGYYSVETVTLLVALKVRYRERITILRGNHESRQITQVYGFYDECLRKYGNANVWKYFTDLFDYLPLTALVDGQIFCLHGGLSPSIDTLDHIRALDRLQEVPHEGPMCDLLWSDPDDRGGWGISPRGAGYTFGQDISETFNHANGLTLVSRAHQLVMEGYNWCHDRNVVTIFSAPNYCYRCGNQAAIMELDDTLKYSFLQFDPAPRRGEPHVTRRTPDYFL
T1 sequence (P30153 2-589 partner limits assumed): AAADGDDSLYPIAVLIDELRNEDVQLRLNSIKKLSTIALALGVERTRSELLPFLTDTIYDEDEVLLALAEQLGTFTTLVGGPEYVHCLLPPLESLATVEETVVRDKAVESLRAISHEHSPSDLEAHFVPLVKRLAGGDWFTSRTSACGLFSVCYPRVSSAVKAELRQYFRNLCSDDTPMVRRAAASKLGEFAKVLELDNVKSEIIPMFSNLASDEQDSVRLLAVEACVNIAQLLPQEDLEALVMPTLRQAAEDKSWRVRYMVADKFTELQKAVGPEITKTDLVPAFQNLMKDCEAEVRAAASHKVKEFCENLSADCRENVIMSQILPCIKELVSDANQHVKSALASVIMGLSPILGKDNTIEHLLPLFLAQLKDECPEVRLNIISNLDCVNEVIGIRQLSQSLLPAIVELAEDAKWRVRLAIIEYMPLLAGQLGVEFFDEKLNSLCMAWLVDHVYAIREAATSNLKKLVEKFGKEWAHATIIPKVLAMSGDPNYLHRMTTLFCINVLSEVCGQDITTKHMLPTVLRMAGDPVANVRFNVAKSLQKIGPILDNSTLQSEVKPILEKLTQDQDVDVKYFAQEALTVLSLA

`COc1cccc2c1C(=O)c1c(O)c3c(c(O)c1C2=O)C[C@@](O)(C(C)=O)C[C@@H]3O[C@H]1C[C@H](N)[C@H](O)[C@H](C)O1` [DNR, Daunorubicin, reference compound]: the tumor volume entry in the assay on SKM-1 xenografts is given as “sharp decrease”. The SKM-1 cell viability result with SKM-1 is given as “significantly diminished in a dose-dependent manner”.
For the compound `CN1CCN(C(=O)C2C(C(=O)O)[C@H]3CC[C@@H]2O3)CC1` (stereo partly drawn) [LB100], the “CDCl2 and CDCl25C total- and phosphorylated-protein levels” value in the assay with SKM-1 cells [1] (5 μM LB100, SKM-1) is given as “markedly downregulated”. The “phosphorylated Bcl-2 and CamKII” value with SKM-1 cells [1] (after LB100 administration) is “increased”. The “caspase-3 and PARP cleavage” value with SKM-1 cells [1] (immunoblotting, 24h exposure, SKM-1) was “cleavage in a concentration-dependent manner”. The “Bcl-2 expression, immunoblot” value with SKM-1 cells [1] (in-vitro, SKM-1, 5 μM LB100) is recorded as “markedly downregulated”. Besides, in the assay with SKM-1 cells [1] (western blot, 5 μM LB100 for 12 h), the “expression of the three PP2A subunits (PP2A-A, PP2A-B, PP2A-C)” value was “moderately decreased”. Besides, the “levels of p-AKT” value in the assay with SKM-1 cells [1] (western blot, sAML cells) is reported as “increased”. Also, the “relative expression of miR-181b-1, increase” value in the assay with miR-181b-1 [2] is recorded as “about 2 fold”. Besides, the “miR-181b-1 in microRNA profiling” value with miR-181b-1 [3] was “significantly up-regulated”. In addition, the “growth of SKM-1 cells, colony formation” value in the assay on SKM-1 cells [4] is on record as “dose-dependent inhibitory activity”. For the same compound, in the assay with SKM-1 cells [5], the “nuclear morphology after Hoechst staining” value is on record as “increased amounts of condensed, pyknotic nudei”. In addition, the IC50 in the assay with HL-60 is 3.36 µM; with THP-1 it was 13.5 µM; in the assay with SKM-1 (Homo sapiens, SKM-1, at 4 h after treatment) it was 5.35 µM; with K562, 7 µM; in the assay with U937 it was 3.44 µM; in the assay on Kasumi-1, 4.38 µM. For the same compound, the tumor volume entry in the assay with SKM-1 xenografts was “sharp decrease”. The G2/M phase cells in the assay with SKM-1 cells [6] (SKM-1 (13.4% before)) is 31.5%. Moreover, the G0/G1 phase cells in the assay on SKM-1 cells [6] (SKM-1 (36.7% before)) worked out at 9.8%. Further, in the assay on SKM-1, the SKM-1 cell viability result is reported as “significantly diminished in a dose-dependent manner”. On PP2A, the “reduction of the activity of PP2A” value was “up to 60%”. Further, the “Bcl-2 expression, immunohistochemistry” value in the assay on Bcl-2 was “markedly downregulated”. Also, the “fraction of apoptotic sAML cells” value in the assay with SKM-1 cells [7] (1.25 μM, 24h (3.13% in the absence of LB100)) turned out to be 8.51%; in the assay with SKM-1 cells [7] (2.5 μM, 24h) it was 13.61%; in the assay on SKM-1 cells [7] (5 μM, 24h), 37%; in the assay on SKM-1 cells [7] (10 μM, 24h) it was 65.27%. Further, the rate of apoptosis was determined as 62% in the assay with SKM-1 cells [7] (absence of z-VAD-FMK) and 16% in the assay with SKM-1 cells [7] (presence of pan-caspase inhibitor z-VAD-FMK).
